Common to all, as to format: cell-based
Assay [1] deals with goldfish retinal ganglion cells. The assay can be described thus: Goldfish retinal ganglion cell culture, axon outgrowth bioassay. The note with it: goldfish RGCs; for effect on axon growth induced by AF-1: 6-TG 20 μM, NBTI 20 μM, H89 5 μM, FIG. 2, 4; for effect on axon growth induced by AF-1 / axon growth induced by cAMP-elevating agent on its own: Sp-cAMPs 150 μM; for axon growth induced by cAMP-elevating agent on its own: FIG. 4; for axon outgrowth in response to monosaccharides: sugar alone, 50 or 100 μM, D-configuration, FIG. 7a. How it is done: Goldfish retinal ganglion cells are prepared as described in PCT application serial no. PCT/US98/03001, the contents of which are incorporated herein by reference, and contacted with a hexose derivative such as mannose. The ability of the hexose derivative to stimulate axonal outgrowth from the goldfish retinal ganglion cells is monitored as described in PCT application serial no. PCT/US98/03001.
Goldfish retinal ganglion cell cultures. Mammalian AF-1 was initially characterized in bioassays using dissociated goldfish retinal ganglion cells (RGCs). In brief, Comet variety goldfish (Mt. Parnell Fisheries, PA) were dark-adapted, cooled to 4° C., and killed by cervical transection. Retinas were dissected and dissociated by incubation in papain followed by a series of trituration steps that result in an RGC-enriched cell suspension (Schwartz & Agronoff,; Schwalb et al., 1995). Approximately 500 RGCs per well were plated together with the experimental samples to be tested in defined, serum-free media containing Leibovitz' L15 media (Gibco BRL) plus N1 and N2 supplements (Bottenstein, Saito), antioxidants, and bovine serum albumin as described in detail elsewhere (Schwalb et al., 1995). In each experiment, 4 wells of each sample were distributed in 24-well plates in a blinded fashion so that the person evaluating axon outgrowth was unaware of the type of sample present in each well. Experiments included a positive control (previously validated goldfish AF-1 or inosine) and a negative control (defined media alone), likewise distributed on the plate in quadruplicate in a blinded fashion. After 6 days in culture at 21° C., axon outgrowth, operationally defined as the percent of RGCs that extended an axon≧5 cell diameters in length, was evaluated in approximately 150 consecutively encountered RGCs per well. […] Data are presented as normalized means ± SEM. All experiments were repeated at least 3 times.

For assay [2] the test system is unchanged. The assay can be described thus: Goldfish retinal ganglion cell culture, cell survival. The note with it: MH 10 mM, sugars at low micromolar concentrations. How it is done:
Goldfish retinal ganglion cell cultures. Mammalian AF-1 was initially characterized in bioassays using dissociated goldfish retinal ganglion cells (RGCs). In brief, Comet variety goldfish (Mt. Parnell Fisheries, PA) were dark-adapted, cooled to 4° C., and killed by cervical transection. Retinas were dissected and dissociated by incubation in papain followed by a series of trituration steps that result in an RGC-enriched cell suspension (Schwartz & Agronoff,; Schwalb et al., 1995). Approximately 500 RGCs per well were plated together with the experimental samples to be tested in defined, serum-free media containing Leibovitz' L15 media (Gibco BRL) plus N1 and N2 supplements (Bottenstein, Saito), antioxidants, and bovine serum albumin as described in detail elsewhere (Schwalb et al., 1995). In each experiment, 4 wells of each sample were distributed in 24-well plates in a blinded fashion so that the person evaluating axon outgrowth was unaware of the type of sample present in each well. Experiments included a positive control (previously validated goldfish AF-1 or inosine) and a negative control (defined media alone), likewise distributed on the plate in quadruplicate in a blinded fashion. After 6 days in culture at 21° C., axon outgrowth, operationally defined as the percent of RGCs that extended an axon≧5 cell diameters in length, was evaluated in approximately 150 consecutively encountered RGCs per well. Data were analyzed by averaging axon growth in the 4 wells for each sample, subtracting the level of growth found in negative controls (typically 3-5%), and normalizing by the net growth in positive controls (usually 20-40%). Data are presented as normalized means ± SEM. All experiments were repeated at least 3 times.

The test system of assay [3] is rat retinal ganglion cells. The assay can be described thus: Rat retinal ganglion cell culture, axon outgrowth. The note with it: rat RGCs; for axon outgrowth, agent by itself: 3 days, no other factor added, forskolin 5 μM in FIG. 9a; for effect on axon growth induced by the low molecular weight vitreous factor (VE<3): FIG. 3a; for axon outgrowth in the presence of forskolin: compared to forskolin alone, glucose up to 5 mM, mannose-6-phosphate up to 10 mM, 9c.
Description: (§1) Rat retinal ganglion cell cultures. Retinal ganglion cells were identified by retrograde labeling with Fluorogold (FG: Fluorochrome, Inc.). […] After allowing 7 days for FG to be retrogradely transported up the optic nerve, rats were killed, eyes were removed, and the retinas dissected. Retinas were dissociated with papain treatment followed by trituration. Mixed cultures containing 100-150 FG-labeled RGCs per well were maintained in 24 well plates in a defined, serum-free media (Minimal Essential Media containing NaHCO3,) at 37° C. at 5% CO2 for 3 days.

The test system of assay [4] is rat retinal ganglion cells. In words: Rat retinal ganglion cell culture, cell survival.
Description: as §1

The structures appear in SMILES notation. Entries after “also recorded” stand apart in the source; their conditions may differ. Like-named read-outs stand apart in the source and are kept apart here.

From US7666843B2, “Methods and compositions for treatment of neurological disorder” (Children's Medical Center Corporation, priority 2002, dated 2010) come the findings set out here.

For `O=C(CO)[C@@H](O)[C@@H](O)[C@H](O)[C@H](O)CO` [MH, mannoheptulose], the “effect on mannose-induced axon outgrowth” value in assay [1] (KT5720 1 μM, MH 10 mM, dBcAMP, late fraction with 50 μM mannose) is “had no effect on outgrowth induced by glucose or mannose; also recorded: has no effect on outgrowth induced by glucose or mannose”. Moreover, the “effect on glucose-induced axon outgrowth” value in assay [1] (glucose 10 μM (50 μM with late fraction), dBcAMP 1 mM, forskolin 10 μM, Rp-cAMPs 100 μM, 3-O-MG 100:1, 2-DG 1 mM, MH 10 mM) is on record as “had no effect on outgrowth induced by glucose or mannose; also recorded: has no effect on outgrowth induced by glucose or mannose”. Moreover, the “cell survival (viable RGCs per field)” value in assay [2] is on record as “detrimental to cell survival; also recorded: decreases cell survival”.

In the case of `Nc1ncnc2c1ncn2[C@@H]1O[C@@H]2COP(O)(=S)O[C@H]2[C@H]1O` (stereo partly shown) [Sp-cAMPs], the “effect on axon growth induced by AF-1” value was “non-statistically significant decrease in outgrowth” in assay [1] (forskolin 10 μM, Rp-cAMPs 100 μM) and “not enhanced; also recorded: reduced the level of outgrowth” in assay [1] (forskolin 10 μM, Rp-cAMPs 100 μM, listed as Sp-cAMP-s). For the same compound, the “axon growth induced by cAMP-elevating agent on its own” value in assay [1] (forskolin 10 μM) is “Neither forskolin (10 μM) nor Sp-cAMPs (150 μM) induced growth on its own”; in assay [1] (forskolin 10 μM, listed as Sp-cAMP-s) it was “Neither forskolin nor Sp-cAMP-s by itself stimulated axon growth”. For the same compound, the “axon outgrowth, agent by itself” value in assay [3] is “little effect on outgrowth”. Also, the “effect on axon growth induced by the low molecular weight vitreous factor (VE<3)” value in assay [3] was “greatly potentiated”; in assay [3] (listed as Sp-cAMP-s), “strongly potentiates”.

Consider `O=C[C@H](O)[C@@H](O)[C@H](O)[C@H](O)CO` [glucose, D-glucose], for which the “axon outgrowth in response to monosaccharides” value in assay [1] is reported as “stimulated as much outgrowth as the low molecular weight factor; also recorded: induced axon growth”. Besides, in assay [1] (sugar by itself, FIG. 7d), the “level of axon growth relative to that seen with the vitreous extract” value is on record as “about 70%”. Further, the “cell survival (viable RGCs per field)” value in assay [2] is on record as “no effect on cell survival; also recorded: not related to any changes in cell survival”. Further, the “axon outgrowth in the presence of forskolin” value in assay [3] (with forskolin, FIG. 9a) is “failed to induce growth above the level of forskolin alone; also recorded: no effect whatsoever”; in assay [3] (with forskolin, FIG. 9a, listed as Glucose), “inactive”. Besides, the “effect of added glucose on mannose-induced growth” value in assay [3] (with forskolin, high concentrations of glucose, FIG. 9a) was “not augmented further; also recorded: not altered”.

For `O=C[C@@H](O)[C@@H](O)[C@H](O)[C@H](O)CO` [mannose, D-mannose], the EC50 in assay [1] (Carassius auratus, FIG. 7c, read-out: ED50 of axon outgrowth) was about 10 µM; in assay [3] (in the presence of forskolin, data not shown, read-out: ED50 of axon outgrowth), about 10 µM. Further, in assay [1] (FIG. 7c), the “concentration at which the effect on axon outgrowth saturates” value is 25 to 50 µM. Moreover, the “axon outgrowth in response to monosaccharides” value in assay [1] is “stimulated as much outgrowth as the low molecular weight factor; also recorded: induced axon growth”. Besides, the “cell survival (viable RGCs per field)” value in assay [2] is reported as “no effect on cell survival; also recorded: not related to any changes in cell survival”; in assay [4] it was “not related to cell survival; also recorded: independent of any changes in cell survival”; in assay [4] (listed as D-mannose), “unrelated to changes in cell survival”. For the same compound, the “axon outgrowth, agent by itself” value in assay [3] is given as “marginally significant response”; in assay [3] (listed as D-mannose) it was “little effect”; in assay [3] (listed as Mannose), “small, marginally significant level of outgrowth”. Besides, the “increase of axon outgrowth over baseline” value in assay [3] (in the presence of forskolin) is on record as 3 fold. Also, the “axon outgrowth in the presence of forskolin” value in assay [3] (with forskolin, FIG. 9a) was “more than doubled the level axon growth induced by forskolin alone; also recorded: striking increase in outgrowth; also recorded: respond strongly”.
